# Test results from ChEMBL document CHEMBL3351870, “Structure elucidation of phase I metabolites of the microtubule perturbagens: ceratamines A and B” (J Nat Prod, 2014).
# How the values were obtained:
# Liver microsome [1] = assay: Drug metabolism in rat liver microsomes incubated with 10 uM ceratamine A for 60 mins assessed as metabolite formation in presence of 1 mM NADPH at pH 7.4 and 37 degC by reverse phase HPLC-UV chromatography; assay type: ADME; conditions: pH 7.4, 1 h
# Liver microsome [2] = assay: Drug metabolism in rat liver microsomes incubated with 10 uM ceratamine B for 60 mins assessed as metabolite level in presence of 1 mM NADPH at pH 7.4 and 37 degC by Quadrupole-time-of-flight mass spectrometry; assay type: ADME; conditions: pH 7.4, 1 h
# Liver microsome [3] = assay: Drug metabolism in rat liver microsomes incubated with 10 uM ceratamine A for 60 mins assessed as metabolite level in presence of 1 mM NADPH at pH 7.4 and 37 degC by Quadrupole-time-of-flight mass spectrometry; assay type: ADME; conditions: pH 7.4, 1 h
# [4] = Retention time by reverse phase HPLC-UV chromatography; assay type: physicochemical
# Liver microsome [5] = assay: Drug metabolism in rat liver microsomes incubated with 10 uM ceratamine B for 60 mins assessed as metabolite formation in presence of 1 mM NADPH at pH 7.4 and 37 degC by reverse phase HPLC-UV chromatography; assay type: ADME; conditions: pH 7.4, 1 h
Drug metabolism (Liver microsome [1]),Drug metabolism (Liver microsome [2]),Drug metabolism (Liver microsome [3]),Retention_time [4] [min],Drug metabolism (Liver microsome [5]),SMILES
metabolite_detected,,,,,CNc1nc2ccn(C)c(=O)c(Cc3cc(Br)c(OC)c(Br)c3)c-2n1 [CERATAMINE A]
,metabolite_detected,metabolite_detected,29.6,,COc1c(Br)cc(Cc2c3nc(N)nc-3cc[nH]c2=O)cc1Br
,metabolite_detected,metabolite_detected,20.1,,CNc1nc2cc[nH]c(=O)c(Cc3cc(Br)c(O)c(Br)c3)c-2n1
,,,,metabolite_detected,CNc1nc2cc[nH]c(=O)c(Cc3cc(Br)c(OC)c(Br)c3)c-2n1
